Source: patent US20240401027A1, “METHOD FOR IMPROVED INTRON TAGGING AND AUTOMATED CLONE RECOGNITION” (PROXYGEN GMBH, priority 2021, published 2024)

Tested on: pool of HAP1 cells expressing GFP-tagged proteins
Assay: Live cell imaging of GFP-tagged HAP1 cell pool and arrayed clones: compound effects on levels and localization of tagged proteins
Assay type: cell-based, human
Procedure: Live cell imaging was performed on a PerkinElmer Opera Phenix microscope with excitation laser 488 nm, and emission filter 500-550 nm, 700 ms.
Identification of the expressed sgRNAs by in situ sequencing was performed by following and modifying published protocols, see, e.g., Feldman (2019) loc. cit; Ke (2013) Nat Methods 10, 857-60; and Larsson (2010) Nat Methods 7, 395-7.
Reverse transcription mix (1× RevertAid RT buffer, 250 µM dNTPs, 0.2 mg/mL BSA, 1 µM RT primer, 0.8 U/mL Ribolock RNase inhibitor, and 4.8 U/mL RevertAid H minus reverse transcriptase) was added to the sample and incubated for 16 hours at 37° C. Following reverse transcription, cells were washed 5 times with PBS-T and post-fixed with 3% paraformaldehyde and 0.1% glutaraldehyde for 30 minutes at room temperature and washed 5 times with PBS-T. Cells were incubated in a padlock probe and extension-ligation reaction mix (1× Ampligase buffer, 0.4 U/mL RNase H, 0.2 mg/mL BSA, 100 nM padlock probe, 0.02 U/mL KlenTaq polymerase, 0.5 U/mL Ampligase and […]) for 5 minutes at 37° C. and 90 minutes at 45° C., and then washed 2 times with PBS-T. Circularized padlocks were amplified with rolling circle amplification mix (1× Phi29 buffer, 250 µM dNTPs, 0.2 mg/mL BSA, 5% glycerol, and 1 U/mL Phi29 DNA polymerase) at 30° C. for 4 hours. Rolling circle amplicons were prepared for sequencing by hybridizing a mix containing sequencing primer oSBS_CROP-seq (1 µM primer in 2×SSC+10% formamide) for 30 minutes at room temperature. Barcodes were read out using sequencing-by-synthesis reagents from the Illumina NextSeq 500/550 kit v2 (Illumina 15057934). First, samples were washed with incorporation buffer (NextSeq 500/550 buffer cartridge, position 35) and incubated for 4 minutes in incorporation mix (NextSeq 500/550 reagent cartridge, position 31) at 60° C. Samples were then washed with incorporation buffer (4 washes, 60° C. for 4 minutes at the last wash) and placed in scan mix (NextSeq 500/550 reagent cartridge, position 30) for imaging. Imaging was performed on a PerkinElmer Opera Phenix microscope with excitation laser: 561 nm, emission filter: 570-630, 500 ms; excitation laser: 640 nm, emission filter: 650-760 nm, 500 ms using a 63× water immersion objective, confocal mode. Based were detected as follows: Base T: signal in 561 channel; Base C: signal in 640 channel, Base A: (weaker) signal in both channels, Base G: no signal. Following each imaging cycle, samples were washed with the cleavage mix (NextSeq 500/550 reagent cartridge, position 29) once followed by incubation with cleavage mix for 4 minutes at 60° C. to remove dye terminators. Samples were washed 5 times with incorporation buffer before starting the next cycle.
It was reasoned that the highly diverse pool of cells expressing GFP-tagged proteins can be used to identify compounds that change protein levels or localization of any of the tagged proteins. […] The application of the CROP-seq vector16 that expresses the sgRNA sequence in a polyadenylated mRNA transcript enables the cell-specific identification of the targeted intron by situ sequencing (see also Feldman, D. et al. Cell 179, 787-799 e17 (2019), Ke, R. et al. Nat Methods 10, 857-60 (2013), Larsson, C. et al. Nat Methods 7, 395-7 (2010). 17-19). To map targeted introns, the cell pool was fixed and a modified in situ sequencing protocol was developed to identify the sgRNA sequence integrated into individual cells in the pool. Based on the library diversity, eight cycles of nucleotide incorporation and imaging are sufficient to unambiguously assign sgRNA sequences (FIG. 6c). Application of this protocol to the cell pool confirmed that in clones with drastic loss of signal GFP was indeed targeted to BRD4 (FIG. 6d).
Therefore, the cell pool was treated with methotrexate (MTX), an antimetabolite impairing DNA and RNA synthesis and causing DNA damage by inhibiting tetrahydrofolate metabolism. […]

[1] = dBET6-treated cell pool, FIG. 6e

Structure (SMILES) | AKAP8 localization [1] | FUBP3 localization [1] | MEAF1 localization [1] | SFPQ localization [1] | UNG nuclear intensity [1] | DR1 nuclear signal (1 µM methotrexate (FIG. 10)) | GFP-tagged RPA1 localization (1 µM methotrexate (FIG. 10)) | GFP-tagged RPA2 localization (1 µM methotrexate (FIG. 10)) | NUDT21 nuclear signal (1 µM methotrexate (FIG. 10)) | PADI1 protein (1 µM methotrexate (FIG. 10)) | RUVBL1 protein (1 µM methotrexate (FIG. 10)) | TPI1 nuclear signal (1 µM methotrexate (FIG. 10)) | nuclear DNMT1 foci (1 µM methotrexate (FIG. 10)) | GFP-tagged ACLY localization (24 h MTX treatment, 1 µM methotrexate (FIG. 10))
Cc1sc2c(c1C)C(c1ccc(Cl)cc1)=N[C@@H](CC(=O)NCCCCCCCCNC(=O)COc1cccc3c1C(=O)N(C1CCC(=O)NC1=O)C3=O)c1nnc(C)n1-2 (some centres unmarked) [dBET6] | gain of nuclear foci | loss of subnuclear localization patterns | loss of subnuclear localization patterns | gain of nuclear foci | loss of nuclear intensity |  |  |  |  |  |  |  |  | 
CN(Cc1cnc2nc(N)nc(N)c2n1)c1ccc(C(=O)N[C@@H](CCC(=O)O)C(=O)O)cc1 [methotrexate] |  |  |  |  |  | gain of nuclear signal | formation of nuclear foci | formation of nuclear foci | gain of nuclear signal | decreases | decreases | gain of nuclear signal | disappearance of nuclear DNMT1 foci | increased nuclear localization
